# Test results published in patent publication US20120071475A1, “UREA DERIVATIVES HAVING PI3K-INHIBITING ACTIVITY” (SHIONOGI & CO., LTD., priority 2009, published 2012).
# Tests used:
# hERG channel (IKr) = target: T1, hERG channel (IKr) (Homo sapiens, UniProt Q12809); experiment: hERG test (whole-cell patch-clamp, IKr in HEK293 cells); type: cell-based; conditions: human, HEK293 cells expressing hERG channel, pH 7.4, inhibition of maximum tail current (IKr), compound 1 μM
# T1 construct: expressed in transfected cells; host or cells: HEK293
# Excerpt: For the purpose of risk evaluation of QT interval extension of electrocardiogram, the activity on delayed rectification K^+ current (IKr), which plays an important role in a cardiac ventricle repolarization process, was examined using the HEK293 cell that was made to express human ether-a-go-go related gene (hERG) channel.
# Using an automatic patch-clamp system (PatchXpress 7000A, Axon Instruments Inc.), by a whole-cell patch-clamp method, after the cell was maintained at a membrane potential of −80 mV, IKr induced upon applying depolarizing stimulation of +50 mV for 2 seconds and further applying repolarizing stimulation of −50 mV for 2 seconds was recorded. After generated electric current became stable, a test substance dissolved at an intended concentration in extracellular fluid (137 mmol/L NaCl, 4 mmol/L KCl, 1.8 mmol/L CaCl2.2H2O, 1 mmol/L MgCl2.6H2O, 10 mmol/L glucose, 10 mmol/L HEPES (4-(2-hydroxyethyl)-1-piperazineethanesulfonic acid), pH=7.4) was applied to the cell for 10 minutes under room temperature condition. From the obtained IKr, the absolute value of the maximum tail current was measured using analysis software (DataXpress ver. 1, Molecular Devices Corporation) and the value of the electric current in a maintained membrane potential as baseline. Moreover, an inhibition ratio for the maximum tail current prior to the application of the test substance was calculated and then compared with a group of media-application (0.1% dimethylsulfoxide solution) to evaluate influence of the test substance on IKr.
# CYP3A4 = target: T2, CYP3A4 (Homo sapiens, UniProt P08684); experiment: CYP3A4 fluorescence MBI test; type: in vitro ADME; conditions: difference in IC50 with 0 or 30 minutes pre-reaction; CYP3A4 expressed in E. coli, substrate 7-BFC
# T2 construct: host or cells: E. coli
# Procedure: The CYP3A4 fluorescence MBI test is a test to examine the enhancement of CYP3A4 inhibition of a compound by a metabolic reaction. The test was performed using as an index, a reaction to produce a metabolite 7-hydroxytrifluoromethylcoumarin (HFC) which emits fluorescence, in which CYP3A4 expressed in E. coli was used as an enzyme and 7-benzyloxytrifluoromethylcoumarin (7-BFC) is debenzylated by CYP3A4 enzyme.
# The reaction conditions are as follows: substrate: 5.6 μmol/L 7-BFC; pre-reaction time; 0 or 30 minutes; reaction time: 15 minutes; reaction temperature: 25° C. (room temperature); content of CYP3A4 (an enzyme expressed in E. coli): […] at the time of a pre-reaction and […] (when diluted 10 times) at the time of a reaction; the concentrations of a test drug: 0.625, 1.25, 2.5, 5, 10, and 20 μmol/L (6 points).
# In a 96-well plate, an enzyme solution and a test drug solution were added as a pre-reaction solution into K-Pi buffer solution (pH 7.4) in the aforementioned ratio. A portion thereof was transferred to another 96-well plate to be diluted ten times with a substrate and a K-Pi buffer solution. A coenzyme, NADPH, was then added to start a reaction, which is the index (this is without a pre-reaction). After reacting for a predetermined time, 4:1 of acetonitrile: 0.5 mol/L Tris (trishydroxyaminomethane) was added to quench the reaction. To the remaining pre-reaction solution, NADPH was added to start a pre-reaction (this is with a pre-reaction). After pre-reacting for a predetermined time, a portion thereof was transferred to another plate to be diluted ten times with a substrate and K-Pi buffer solution, and thereby the index reaction is started. After reacting for a predetermined time, 4:1 of acetonitrile:0.5 mol/L Tris (trishydroxyaminomethane) was added to quench the reaction. For each plate in which the index reaction was carried out, the fluorescence value of a metabolite 7-HFC was measured with a fluorescent plate reader (Ex=420 nm, Em=535 nm).
# The case wherein only DMSO (a solvent which dissolved a drug) was added to a reaction system was defined as a control (100%). When a test drug solution was added, the remaining activity (%) at each concentration was calculated, and then IC50 was calculated with a concentration and an inhibition ratio by an inverse estimation using a logistic model. When the difference in IC50 value is 5 μmol/L or more, the compound is shown as (+). When 3 μmol/L or less, the compound is shown as (−).
# [1] = Metabolic stability test (pooled human liver microsome); type: in vitro ADME; conditions: percentage of test compound remained after 30 minutes, pooled human liver microsome 0.5 mg protein/mL, 1 mmol/L NADPH, 37° C., compound 0.5 μM
# Procedure: After a subject compound was reacted for a certain time using a pooled human liver microsome commercially available, a reacted sample and an unreacted sample are compared to calculate a survival ratio, and then the degree of metabolism in the liver was evaluated.
# 0.2 mL of a buffer solution (50 mmol/L of Tris-HCl in pH 7.4, 150 mmol/L of potassium chloride, and 10 mmol/L of magnesium chloride) containing a human liver microsome of 0.5 mg protein/mL was reacted in the presence of 1 mmol/L NADPH at 37° C. for 0 or 30 minutes (oxidative reaction). After reacting, 50 μL of the reaction solution was added to 100 μL of a solution of methanol/acetonitrile (1/1 (v/v)), mixed, and then centrifuged at 3000 rpm for 15 minutes. The test compound in the supernatant was quantitated with LC/MS/MS. The amount of the compound at a reaction time of 0 minute was defined as 100% and, based on that, the percentage of the test compound remained after reacting for 30 minutes was calculated.
# PI3Kγ [2] = target: T3, PI3Kγ (Homo sapiens, UniProt P48736); experiment: PI3Kγ inhibitory activity (PI3-kinase HTRF assay, inhibition ratio); type: biochemical; conditions: 0.5 h, compound at 10 μmol/L; read-out: PI3Kg Inhibition Ratio % (10 μM)
# Procedure: For each compound synthesized in the above Examples, PI3Kγ inhibitory activity was measured.
# The PI3Kγ inhibitory activity of a compound was evaluated using PI3-kinase HTRF™ assay (Millipore) according to the following procedure:
# To each well of a testing plate, 5 μL of a compound solution containing 10% DMSO (40 μmol/L as the concentration of the compound), 5 μL of a substrate solution (40 μmol/L phosphatidylinositol (4,5)-bisphosphate, 20 mmol/L MgCl2, 10 mmol/L DTT), and 5 μL of an enzyme solution (80 μg/mL PI-3 kinase y, 10 mmol/L MgCl2, 5 mmol/L DTT) were added, and then allowed to stand for 10 minutes.
# Then, 5 μL of a reaction solution (40 μmol/L ATP, 10 mmol/L MgCl2, 5 mmol/L DTT) was added thereto. After reacting for 30 minutes at room temperature, 5 μL of a solution containing EDTA and biotinylated phosphatidylinositol (3,4,5)-triphosphate was added to quench the reaction.
# 5 μL of a detection reagent containing a europium-labeled anti-GST antibody, the GST-tagged PH domain, and allophycocyanin-labeled streptavidin was added thereto. After 18 hours, HTRF (excitation wavelength: 330 nm, measured wavelengths: 620 nm and 665 nm) was measured.
# HTRF ratio was defined as the value obtained by dividing the amount of fluorescence obtained at the measured wavelength 665 nm by the amount of fluorescence obtained at 620 nm. The HTRF ratio in the absence of a compound was defined as 100% activity and the HTRF ratio in the absence of PI-3 kinase y was defined as 0% activity to calculate an inhibition ratio, which was defined as the PI3Kγ inhibitory activity of a compound at 10 μmol/L.
# PI3Kγ [3] = target: T3, PI3Kγ; experiment: PI3Kγ inhibitory activity (Ki value); type: biochemical; conditions: read-out: PI3Kγ Ki value
# Procedure: The PI3Kγ inhibitory activity (Ki value) of a compound was evaluated according to the following procedure:
# 5 μL of a compound solution containing 10% DMSO and […] of a compound was changed to 5 μL of a compound solution containing 10% DMSO and either 200, 64, 20, 6.4, 2, 0.64, or 0.20 μmol/L of the compound (optionally, this is diluted to a lower concentration). Using a method similar to the method for measuring PI3Kγ inhibitory activity, inhibition ratios of PI3Kγ were measured in the presence of the compound at 50, 16, 5, 1.6, 0.5, 0.16, and 0.05 μmol/L (optionally, a lower concentration). Then an IC50 value was calculated by a logistic approximation method or the linear regression method using two concentrations that cross 50% inhibition. Separately, the ATP concentration in the reaction solution (40 μmol/L ATP, 10 mmol/L MgCl2, 5 mmol/L DTT) at the time of the start of a reaction in the absence of the compound was changed to 80, 40, 20, 10, 5, 2.5, 1.25, or 0.625 μmol/L. Then, HTRF ratios were measured by a similar method. The value obtained by subtracting the HTRF ratio at each ATP concentration from the HTRF ratio in the absence of PI-3 kinase y was defined as the value obtained by multiplying reaction rate (v) at each ATP concentration with a constant. The Michaelis-Menten constant Km was then calculated by the Lineweaver-Burk plot method. The Ki value of a compound was calculated by the following formula wherein “μM” denotes “μmol/L.”
# Ki value ═IC50 value/(1+test ATP concentration (μM)/Km (μM))
# T3 sequence (P48736 whole entry, species assumed): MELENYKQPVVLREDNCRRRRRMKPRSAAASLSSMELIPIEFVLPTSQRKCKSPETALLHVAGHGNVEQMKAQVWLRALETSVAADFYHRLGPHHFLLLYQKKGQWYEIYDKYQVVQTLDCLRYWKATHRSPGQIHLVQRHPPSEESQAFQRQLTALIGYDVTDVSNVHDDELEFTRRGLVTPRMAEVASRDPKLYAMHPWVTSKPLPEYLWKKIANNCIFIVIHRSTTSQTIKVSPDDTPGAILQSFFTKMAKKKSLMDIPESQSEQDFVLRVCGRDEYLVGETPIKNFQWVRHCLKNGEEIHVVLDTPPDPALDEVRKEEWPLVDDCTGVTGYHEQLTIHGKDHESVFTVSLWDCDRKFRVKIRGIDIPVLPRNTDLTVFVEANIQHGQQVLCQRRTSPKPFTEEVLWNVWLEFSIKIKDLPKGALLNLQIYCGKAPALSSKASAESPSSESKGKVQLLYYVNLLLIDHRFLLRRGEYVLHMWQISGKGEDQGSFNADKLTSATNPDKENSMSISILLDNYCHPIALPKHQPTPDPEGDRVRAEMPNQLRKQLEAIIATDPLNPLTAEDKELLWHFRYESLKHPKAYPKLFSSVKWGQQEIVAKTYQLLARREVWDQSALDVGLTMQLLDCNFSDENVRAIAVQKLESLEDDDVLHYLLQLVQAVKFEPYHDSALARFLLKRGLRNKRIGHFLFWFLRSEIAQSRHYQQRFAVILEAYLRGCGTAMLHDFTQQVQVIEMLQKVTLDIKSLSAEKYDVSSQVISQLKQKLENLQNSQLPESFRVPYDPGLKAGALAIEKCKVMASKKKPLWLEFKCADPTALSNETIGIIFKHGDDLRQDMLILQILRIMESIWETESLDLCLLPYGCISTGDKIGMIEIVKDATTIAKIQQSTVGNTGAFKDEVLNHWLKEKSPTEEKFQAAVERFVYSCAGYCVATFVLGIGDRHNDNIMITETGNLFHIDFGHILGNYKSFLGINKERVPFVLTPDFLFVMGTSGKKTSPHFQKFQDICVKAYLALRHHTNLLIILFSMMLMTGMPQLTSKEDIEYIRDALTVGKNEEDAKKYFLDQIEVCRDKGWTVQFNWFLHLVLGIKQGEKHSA
# T1 sequence (Q12809 whole entry): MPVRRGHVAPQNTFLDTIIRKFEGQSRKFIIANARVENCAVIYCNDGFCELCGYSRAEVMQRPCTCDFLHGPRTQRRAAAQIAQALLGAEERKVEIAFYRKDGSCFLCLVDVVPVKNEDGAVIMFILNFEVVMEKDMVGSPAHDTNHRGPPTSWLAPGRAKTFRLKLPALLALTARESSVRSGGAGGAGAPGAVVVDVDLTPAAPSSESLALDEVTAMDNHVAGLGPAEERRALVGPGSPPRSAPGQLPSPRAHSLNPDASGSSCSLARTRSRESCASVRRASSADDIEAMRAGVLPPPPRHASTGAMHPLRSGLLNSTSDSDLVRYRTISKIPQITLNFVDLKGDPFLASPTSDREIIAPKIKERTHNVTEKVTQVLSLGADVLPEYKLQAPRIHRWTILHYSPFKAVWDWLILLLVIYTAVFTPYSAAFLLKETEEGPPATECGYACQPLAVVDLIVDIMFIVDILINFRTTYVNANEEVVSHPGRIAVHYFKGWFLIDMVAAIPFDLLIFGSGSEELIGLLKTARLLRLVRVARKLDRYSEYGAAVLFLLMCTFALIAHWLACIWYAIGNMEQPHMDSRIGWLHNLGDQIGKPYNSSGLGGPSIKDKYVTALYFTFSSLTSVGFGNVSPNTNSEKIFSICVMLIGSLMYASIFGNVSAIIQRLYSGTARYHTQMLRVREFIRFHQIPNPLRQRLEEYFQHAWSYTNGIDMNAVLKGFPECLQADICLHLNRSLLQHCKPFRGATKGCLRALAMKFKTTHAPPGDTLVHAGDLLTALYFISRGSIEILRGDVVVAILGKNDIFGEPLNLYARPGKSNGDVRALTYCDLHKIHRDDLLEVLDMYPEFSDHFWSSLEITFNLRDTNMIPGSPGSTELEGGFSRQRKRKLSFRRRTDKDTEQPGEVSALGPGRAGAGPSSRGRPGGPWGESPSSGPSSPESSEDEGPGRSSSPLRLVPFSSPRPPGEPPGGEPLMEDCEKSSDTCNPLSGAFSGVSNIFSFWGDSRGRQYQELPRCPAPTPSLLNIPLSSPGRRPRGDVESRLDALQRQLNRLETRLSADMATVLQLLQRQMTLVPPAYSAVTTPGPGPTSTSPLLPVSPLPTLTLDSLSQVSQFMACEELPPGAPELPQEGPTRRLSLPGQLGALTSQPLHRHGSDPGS
# T2 sequence (P08684 whole entry): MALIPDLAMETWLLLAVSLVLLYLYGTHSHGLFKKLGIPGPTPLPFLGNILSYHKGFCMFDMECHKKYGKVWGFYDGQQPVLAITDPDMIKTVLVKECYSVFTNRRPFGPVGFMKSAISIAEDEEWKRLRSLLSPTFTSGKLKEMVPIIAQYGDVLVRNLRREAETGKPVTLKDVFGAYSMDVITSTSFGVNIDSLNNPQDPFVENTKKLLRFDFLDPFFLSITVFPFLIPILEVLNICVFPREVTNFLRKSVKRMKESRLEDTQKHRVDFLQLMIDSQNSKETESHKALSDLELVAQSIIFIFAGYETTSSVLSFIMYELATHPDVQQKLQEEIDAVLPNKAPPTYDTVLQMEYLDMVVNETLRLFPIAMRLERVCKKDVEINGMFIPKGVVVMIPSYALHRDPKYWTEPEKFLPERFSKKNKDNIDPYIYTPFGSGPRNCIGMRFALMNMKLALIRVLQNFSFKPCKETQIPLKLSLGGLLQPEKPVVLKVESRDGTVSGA
hLMS_ox(at 0.5 μM) % [1] [%],inhibition at 10 µM (PI3Kγ [2]) [%],Ki (PI3Kγ [3]) [nM],Compound,"inhibition at 10 min, 1 µM (hERG channel (IKr)) [%]",MBI (CYP3A4)
,,,COc1nc(N(C)C)cc(N2CCc3nc(NC(=O)Nc4ccccc4C(=O)NC(C)C)sc3C2)n1 [Compound I-41],5.6,
,,,COc1cncc(-c2ccc3nc(NC(=O)Nc4ccccc4C(=O)NC(C)C)cn3n2)c1 [Compound I-111],2.4,"(−) (When 3 μmol/L or less, the compound is shown as (−))"
91.9,≥ 95,,COc1cc(N2CCc3nc(NC(=O)Nc4ccccc4C(=O)N[C@@H](C)CO)sc3C2)nc(OC)n1 [Compound I-101],9.6,
,,,CCCCc1ccccc1NC(=O)Nc1nc2c(s1)CN(c1cc(OC)nc(OC)n1)CC2 [Compound I-150],3,
,94,480,Cc1nc(NC(=O)Nc2ccccc2OCCC(C)C)sc1-c1csc(S(=O)(=O)N(C)CCN(C)C)c1 [Compound I-192],,
82.1,,,COc1cc(N2CCc3nc(NC(=O)Nc4ccccc4C(=O)NC(C)C)sc3C2)cnc1OC [Compound I-80],5.5,
,≥ 95,,CCNC(=O)c1ccccc1NC(=O)Nc1nc2c(s1)CN(c1cc(Cl)nc(OC)n1)CC2 [Compound I-93],6.8,"(−) (When 3 μmol/L or less, the compound is shown as (−))"
,,,COc1nc(Cl)cc(N2CCc3nc(NC(=O)Nc4ccccc4C(=O)NC(C)C)sc3C2)n1 [Compound I-53],5.1,"(−) (When 3 μmol/L or less, the compound is shown as (−))"
83.5,,,CCNC(=O)c1ccccc1NC(=O)Nc1nc2c(s1)CN(c1cc(OC)nc(OC)n1)CC2 [Compound I-57],5.3,"(−) (When 3 μmol/L or less, the compound is shown as (−))"
,92,,COc1cc(N2CCc3nc(NC(=O)Nc4ccccc4C(=O)NC4CC4)sc3C2)nc(OC)n1 [Compound I-16],9.3,
,,,CCNC(=O)c1ccncc1NC(=O)Nc1nc2c(s1)CN(c1cc(Cl)nc(OC)n1)CC2 [Compound I-92],2.4,
,≥ 95,,COc1nccc(N2CCc3nc(NC(=O)Nc4ccccc4C(=O)NC(C)C)sc3C2)n1 [Compound I-95],3.7,
,≥ 95,,CCNC(=O)c1ccncc1NC(=O)Nc1nc2c(s1)CN(c1cc(OC)nc(OC)n1)CC2 [Compound I-94],6.8,"(−) (When 3 μmol/L or less, the compound is shown as (−))"
,≥ 95,,COc1cc(N2CCc3nc(NC(=O)NC4=C(C(=O)NC(C)C)CCC4)sc3C2)nc(OC)n1 [Compound I-29],8.7,"(−) (When 3 μmol/L or less, the compound is shown as (−))"
,,,COc1cc(N2CCc3nc(NC(=O)Nc4ccccc4OC(C)C)sc3C2)nc(OC)n1 [Compound I-48],3.2,
84.2,≥ 95,,COc1cc(N2CCc3nc(NC(=O)Nc4ccccc4C(=O)N[C@H](C)CO)sc3C2)nc(OC)n1 [Compound I-102],8.8,
,,,COc1cc(N2CCc3nc(NC(=O)Nc4ccccc4OCCC(C)C)sc3C2)nc(OC)n1 [Compound I-55],7.7,
,≥ 95,680,COc1cncc(-c2cc(NC(=O)Nc3ccccc3OCCC(C)C)nn2C)c1 [Compound I-221],,
